Data on 8 molecules can be found in article PMC8107043 (Bioorganic & Medicinal Chemistry Letters, 2021).

The target in series [1] is SARS-CoV-2 PLpro (Severe acute respiratory syndrome coronavirus 2, UniProt P0DTD1). The series can be described thus: Papain-like protease. The class given is biochemical. As to conditions: read-out: Percent inhibition against PLpro, 100 µg/mL, mean ± SEM of 3 replicas.
Series [2] deals with SARS-CoV-2 M^pro (Severe acute respiratory syndrome coronavirus 2, UniProt P0DTD1). The class given is biochemical. As to conditions: read-out: IC50 against M^pro; dose-response 25-200 µg/mL.
The test system of series [3] is normal human fibroblast cells (HDF). In words: Cell viability MTT assay. The class given is cell-based. As to conditions: in words.
Series [4] has as its system SARS-CoV-2. As to conditions: in words; cited from earlier work.

In the case of `CCOC(=O)C(Cc1c[nH]c2ccccc12)NC(=O)CCC(=O)Nc1ccc(S(N)(=O)=O)cc1` (stereo not drawn) [Compound 2], in series [1], the inhibition at 100 µg/mL is no more than 40%.
As to `COc1cc(C(NC2=NC(=O)C(CC(=O)Nc3ccc(C(=O)O)cc3)S2)c2c(O)[nH]c(=O)[nH]c2=O)ccc1O` (stereo not drawn) [Compound 7], the half-maximal inhibitory concentration (IC50) (usually the concentration that gives 50% inhibition) in series [2] turned out to be 450 nM. Besides, in series [3], the “toxicity on mammalian cells” value is recorded as “no toxicity”.
For `O=C(CSc1nnc2c(n1)[nH]c1ccccc12)Nc1cccc(S(=O)(=O)N2CCOCC2)c1` [Compound 8], the inhibition at 100 µg/mL in series [1] is no more than 40%.
For `COc1ccc(/C=C\C(=O)NC(=S)Nc2ccc(S(=O)(=O)NC(N)=O)cc2)cc1OC` [Compound 9], in series [1], the inhibition at 100 µg/mL was no more than 40%.
Same read-out and setting: then `COc1cc(CC(C)NCc2cc(NC(=O)c3ccccn3)cc(C(=O)N(C)C)c2)ccc1O` (stereo not drawn) [Compound 12], with no more than 40%.
Take `N=C(N/N=C/c1ccccc1O)c1nonc1NCNc1nonc1C(=N)N/N=C/c1ccccc1O` [Compound 13]: the “toxicity on mammalian cells” value in series [3] is “no toxicity”.
As to `Cc1cccc(C)c1OCC(=O)N[C@@H](Cc1ccccc1)[C@@H](O)C[C@H](Cc1ccccc1)NC(=O)[C@H](C(C)C)N1CCCNC1=O` [lopinavir], the “outcome in clinical trial as anti-SARS-CoV-2 inhibitors” value in series [4] was “failed in the clinical trial”.
Consider `CC(C)c1nc(CN(C)C(=O)N[C@H](C(=O)N[C@@H](Cc2ccccc2)C[C@H](O)[C@H](Cc2ccccc2)NC(=O)OCc2cncs2)C(C)C)cs1` [ritonavir], for which the “outcome in clinical trial as anti-SARS-CoV-2 inhibitors” value in series [4] is recorded as “failed in the clinical trial”.
